Read-outs that look alike come from different tables or passages of the source.
Test: Solubility screening of Formula (I) in crystallization solvents at RT and 50° C. (TABLE 3)
Assay type: physicochemical
Details: for solubility: thermodynamic from solid
Method: This example covers crystallization of Formula (I) in multiple solvent systems. Solvents were selected to span a range of polarities, functionalities, and classifications according to the International Conference on Harmonization (ICH) with preferences given to class II and class III solvents. […] After each addition of solvent, the vials were shaken and visually inspected for residual solids. If required, heating to 50° C. or heated to reflux (for low boiling point solvents) for approximately two minutes was performed to ensure complete dissolution. If residual solids remained, additional solvent aliquots were added. The solvent addition was discontinued when complete dissolution was achieved. […]

CC[C@H](C)C(=O)N1CCC(NC(=O)Nc2ccc(OC(F)(F)F)c(F)c2)CC1 [Formula (I), (S)-1-(3-fluoro-4-(trifluoromethoxy)phenyl)-3-(1-(2-methylbutanoyl)piperidin-4-yl)urea]
Soluble? (2-MeTHF, RT, Vol 0.2 mL): Yes
solubility (2-butanone (MEK), organic solvent or mixture, MEK, RT, read-out: Nominal Solubility): 50.4 mg/mL
solubility (2-butanone (MEK), organic solvent or mixture, MEK, RT, read-out: Solubility Range): ≥ 50.4 mg/mL
solubility (2-methyltetrahydrofuran (2-MeTHF), organic solvent or mixture, 2-MeTHF, RT, read-out: Nominal Solubility): 25.2 mg/mL
solubility (2-methyltetrahydrofuran (2-MeTHF), organic solvent or mixture, 2-MeTHF, RT, read-out: Solubility Range): 25.2 to 50.4 mg/mL
Soluble? (ACN, RT, Vol 0.1 mL): Yes
Soluble? (Acetone, RT, Vol 0.1 mL): Yes
Soluble? (DCM, RT, Vol 0.1 mL): Yes
solubility (DMF, organic solvent or mixture, DMF, RT, read-out: Nominal Solubility): 46.1 mg/mL
solubility (DMF, organic solvent or mixture, DMF, RT, read-out: Solubility Range): ≥ 46.1 mg/mL
Soluble? (DMF, RT, Vol 0.1 mL): Yes
solubility (DMSO, organic solvent or mixture, DMSO, RT, read-out: Nominal Solubility): 47.8 mg/mL
solubility (DMSO, organic solvent or mixture, DMSO, RT, read-out: Solubility Range): ≥ 47.8 mg/mL
Soluble? (DMSO, RT, Vol 0.1 mL): Yes
Soluble? (Dioxane, RT, Vol 0.5 mL): Yes
Soluble? (EtOAc, RT, Vol 0.1 mL): Yes
Soluble? (EtOH, RT, Vol 0.1 mL): Yes
Soluble? (IPA, RT, Vol 0.1 mL): Yes
Soluble? (IPAC, RT, Vol 0.2 mL): Yes
Soluble? (MEK, RT, Vol 0.1 mL): Yes
Soluble? (MIBK, RT, Vol 0.1 mL): Yes
Soluble? (MTBE, 50° C., Vol 1.0 mL): Yes
Soluble? (MeOH, RT, Vol 0.1 mL): Yes
solubility (NMP, organic solvent or mixture, NMP, RT, read-out: Nominal Solubility): 55.2 mg/mL
solubility (NMP, organic solvent or mixture, NMP, RT, read-out: Solubility Range): ≥ 55.2 mg/mL
Soluble? (NMP, RT, Vol 0.1 mL): Yes
Soluble? (THF, RT, Vol 0.1 mL): Yes
Soluble? (Toluene, 50° C., Vol 0.5 mL): Yes
Soluble? (Water, 50° C., Vol 4.0 mL): No
solubility (acetone, organic solvent or mixture, Acetone, RT, read-out: Nominal Solubility): 43.7 mg/mL
solubility (acetone, organic solvent or mixture, Acetone, RT, read-out: Solubility Range): ≥ 43.7 mg/mL
solubility (acetonitrile (ACN), organic solvent or mixture, ACN, RT, read-out: Nominal Solubility): 48.3 mg/mL
solubility (acetonitrile (ACN), organic solvent or mixture, ACN, RT, read-out: Solubility Range): ≥ 48.3 mg/mL
Soluble? (c-Hexane, 50° C., Vol 4.0 mL): No
solubility (c-hexane, 50 °C, organic solvent or mixture, c-Hexane, 50° C., read-out: Solubility Range): < 1.17 mg/mL
solubility (cyclohexane (c-hexane), 50 °C, organic solvent or mixture, c-Hexane, 50° C., read-out: Nominal Solubility): < 1.17 mg/mL
solubility (dichloromethane (DCM), organic solvent or mixture, DCM, RT, read-out: Nominal Solubility): 46.6 mg/mL
solubility (dichloromethane (DCM), organic solvent or mixture, DCM, RT, read-out: Solubility Range): ≥ 46.6 mg/mL
solubility (dioxane, organic solvent or mixture, Dioxane, RT, read-out: Nominal Solubility): 9.36 mg/mL
solubility (dioxane, organic solvent or mixture, Dioxane, RT, read-out: Solubility Range): 9.36 to 23.4 mg/mL
solubility (ethanol, organic solvent or mixture, EtOH, RT, read-out: Nominal Solubility): 41.2 mg/mL
solubility (ethanol, organic solvent or mixture, EtOH, RT, read-out: Solubility Range): ≥ 41.2 mg/mL
solubility (ethyl acetate (EtOAc), organic solvent or mixture, EtOAc, RT, read-out: Nominal Solubility): 54.3 mg/mL
solubility (ethyl acetate (EtOAc), organic solvent or mixture, EtOAc, RT, read-out: Solubility Range): ≥ 54.3 mg/mL
solubility (isopropanol (IPA), organic solvent or mixture, IPA, RT, read-out: Nominal Solubility): 56 mg/mL
solubility (isopropanol (IPA), organic solvent or mixture, IPA, RT, read-out: Solubility Range): ≥ 56 mg/mL
solubility (isopropyl acetate (IPAc), organic solvent or mixture, IPAC, RT, read-out: Nominal Solubility): 23.4 mg/mL
solubility (isopropyl acetate (IPAc), organic solvent or mixture, IPAC, RT, read-out: Solubility Range): 23.4 to 46.7 mg/mL
solubility (methanol, organic solvent or mixture, MeOH, RT, read-out: Nominal Solubility): 43.2 mg/mL
solubility (methanol, organic solvent or mixture, MeOH, RT, read-out: Solubility Range): ≥ 43.2 mg/mL
solubility (methyl isobutyl ketone (MIBK), organic solvent or mixture, MIBK, RT, read-out: Nominal Solubility): 48 mg/mL
solubility (methyl isobutyl ketone (MIBK), organic solvent or mixture, MIBK, RT, read-out: Solubility Range): ≥ 48 mg/mL
solubility (methyl tert-butyl ether (MTBE), 50 °C, organic solvent or mixture, MTBE, 50° C., read-out: Nominal Solubility): 5.68 mg/mL
solubility (methyl tert-butyl ether (MTBE), 50 °C, organic solvent or mixture, MTBE, 50° C., read-out: Solubility Range): 5.68 to 11.4 mg/mL
Soluble? (n-BuOH, RT, Vol 0.1 mL): Yes
Soluble? (n-Heptane, 50° C., Vol 4.0 mL): No
Soluble? (n-Propanol, RT, Vol 0.1 mL): Yes
solubility (n-butanol (n-BuOH), organic solvent or mixture, n-BuOH, RT, read-out: Nominal Solubility): 42.6 mg/mL
solubility (n-butanol (n-BuOH), organic solvent or mixture, n-BuOH, RT, read-out: Solubility Range): ≥ 42.6 mg/mL
solubility (n-heptane, 50 °C, organic solvent or mixture, n-Heptane, 50° C., read-out: Nominal Solubility): < 1.32 mg/mL
solubility (n-heptane, 50 °C, organic solvent or mixture, n-Heptane, 50° C., read-out: Solubility Range): < 1.32 mg/mL
solubility (n-propanol, organic solvent or mixture, n-Propanol, RT, read-out: Nominal Solubility): 52.2 mg/mL
solubility (n-propanol, organic solvent or mixture, n-Propanol, RT, read-out: Solubility Range): ≥ 52.2 mg/mL
solubility (tetrahydrofuran (THF), organic solvent or mixture, THF, RT, read-out: Nominal Solubility): 48 mg/mL
solubility (tetrahydrofuran (THF), organic solvent or mixture, THF, RT, read-out: Solubility Range): ≥ 48 mg/mL
solubility (toluene, 50 °C, organic solvent or mixture, Toluene, 50° C., read-out: Nominal Solubility): 10 mg/mL
solubility (toluene, 50 °C, organic solvent or mixture, Toluene, 50° C., read-out: Solubility Range): 10 to 25 mg/mL
solubility (water, 50 °C, water, Water, 50° C., read-out: Nominal Solubility): < 1.36 mg/mL
solubility (water, 50 °C, water, Water, 50° C., read-out: Solubility Range): < 1.36 mg/mL
